Data taken from patent US20100267803A1, “Regulators Of Fat Metabolism As Anti-Cancer Targets” (The Research Foundation of State University Of New York, priority 2008, published 2010).

Assays:
Assay type in all cases: cell-based, human
BT474 cells = assay: RNAi screen, alamarBlue cell proliferation and viability; details: shRNA transfection
Source text: (§1) FIG. 1 An RNAi screen targeting genes overexpressed in breast cancer. (a) Three transfection mixes were produced for each shRNA and each was transfected into triplicate wells of BT474 cells. AlamarBlue was used to monitor cell proliferation and viability. […] (b) The genetic and functional linkage of NR1D1 and PBP. Mb refers to map position on chromosome 17. (c) ERBB2-overexpressing (OEX) and ERBB2 non-overexpressing (non-OEX) breast cancer cell lines as well as the (non-OEX) HMEC and HEK 293 cells were transfected and assayed as in (a). […] Genes clustered with ERBB2 are boxed.
Amplification of the ERBB2 oncogene occurs in 10-34% of breast cancer cases and is correlated with aggressive disease and poor clinical outcome^1. […] However, its success has been tempered by response rates of only 30% when used as a single agent therapy in patients with metastatic ERBB2-positive breast cancer^2. A large number of genes co-overexpressed with ERBB2 in this tumour type have been proposed to contribute to the aggressiveness of this cancer^3-5. Applicants have performed an unbiased functional RNAi screen^8-10 to determine if any of these co-overexpressed genes are essential for ERBB2 positive breast cancer cell survival.
RNAi screen, transfections and constructs. The flag-RevErba (flag-NR1D1) overexpression construct was a generous gift of M. Lazar. The LSXN-neu* (ERBB2) overexpression construct was a generous gift of L. Petti. shRNA constructs were expressed from the pSHAG-MAGIC 2 (pSM2) vector and derived from a genome-wide shRNA library^31. ShRNAs targeting the firefly (Photinus pyralis) luciferase gene were used as controls. Transfection efficiency was monitored by co-transfection with a modified MSCV-Puro vector expressing green fluorescent protein (GFP). The alamarBlue (Biosource) assay was performed 96 h post-transfection, since BT474 cells have a population doubling time of ˜100 hours. For mature sequences of the shRNAs that produced the best results on decreasing BT474 viability, Table S1; a complete list is available in the RNAi Codex web page (http://codex.cshl.edu). The shRNAs targeting the luciferase gene were constructed as described in the RNAi Codex web page (http://codex.cshl.edu/scripts/newmain.pl) using a modified pSM2 vector containing the PheS gene (pSM2-PheS) in the cloning site, as a negative selection marker. The empty vector control (pSM2e) was constructed by XhoI and EcoRI (New England Biolabs) digestion of pSM2-PheS, followed by nucleotide filling of protruding ends by Klenow polymerase and blunt-end ligation. Transfections were performed using FuGENE 6 and HD FuGENE (Roche) according to the manufacturer's protocol. High-throughput transfections were performed using an EpMotion 5070 fluidics station (Eppendorf). For quantification of alamarBlue we used a BioTek HT Synergy plate reader. AlamarBlue values from the RNAi screens on other cell types were also calculated as above and subjected to hierarchical cluster analysis using Cluster 2.11 (M. Eisen Lab).

[1] = tested on: nonoverexpressing breast cancer cell lines (MCF-7, MDA-MB-453, MDA-MB-468), HMECs, HEK 293FT; assay: alamarBlue proliferation of shRNA-transfected ERBB2 non-overexpressing cell lines; details: MCF-7, MDA-MB-453, MDA-MB-468, HMEC, shRNA transfection
Source text: as §1
To assess the specificity of effect of each shRNA on cell proliferation, those causing the greatest decrease in BT474 cell proliferation were transfected in a variety of cell lines, including ERBB2 overexpressing (BT474, MDA-MB-361) and nonoverexpressing breast cancer cell lines (MCF-7, MDA-MB-453, MDA-MB-468), normal human mammary epithelial cells (HMECs) and a non-breast tumorigenic cell line (HEK 293FT). […] PBP, NRID1 and PFN2 shRNAs clustered with ERBB2.
RNAi screen, transfections and constructs. The flag-RevErba (flag-NR1D1) overexpression construct was a generous gift of M. Lazar. The LSXN-neu* (ERBB2) overexpression construct was a generous gift of L. Petti. shRNA constructs were expressed from the pSHAG-MAGIC 2 (pSM2) vector and derived from a genome-wide shRNA library^31. ShRNAs targeting the firefly (Photinus pyralis) luciferase gene were used as controls. Transfection efficiency was monitored by co-transfection with a modified MSCV-Puro vector expressing green fluorescent protein (GFP). The alamarBlue (Biosource) assay was performed 96 h post-transfection, since BT474 cells have a population doubling time of ˜100 hours. […] For quantification of alamarBlue we used a BioTek HT Synergy plate reader. AlamarBlue values from the RNAi screens on other cell types were also calculated as above and subjected to hierarchical cluster analysis using Cluster 2.11 (M. Eisen Lab).

FADS2 mRNA = assay: qRT-PCR of FADS2 mRNA in BT474 cells; details: shRNA or 20 μM GW9662 for 48 h
Description: FIG. 4 NR1D1 and PBP coordinate fatty acid metabolism in breast cancer cells. (a) BT474, MDA-MB-361, MCF-7 and HMEC cells were stained with Oil-Red O lipid and hematoxylin nuclear stains. (b) Fat stores were quantified by BODIPY 493/503 lipid probe staining (Error bars are s.d from 3 individual experiments). (c) FASN, ACLY, ACACA and FADS2 mRNA levels of BT474 cells treated with luciferase (control), PBP or NR1D1 shRNAs, or with vehicle and 20 μM of GW9662 for 48 h, analyzed by qRT-PCRs. (Error bars are s.d from 3 experiments; ***P<0.001, **P=0.005) (d) BT474 cells were transfected with FASN, ACLY and ACACA shRNAs and co-transfected with GFP. Transfected cells were counted at 24 h and 72 h and the 72h-to-24 h ratio for each shRNA was calculated and expressed as % of the control shRNA (luciferase). (Error bars are s.d from 3 individual experiments; **P<0.01, ***P<0.002). (e) BODIPY images and (f) quantification of BT474 cells transfected with luciferase (control), PBP or NR1D1 shRNAs and co-transfected with DsRed (Error bars are s.d from 3 individual experiments; ***P<0.03). Arrows indicate transfected cells.
Cell viability—apoptosis assays. […] At least 30 fields were imaged per single experiment. […] Immunoblotting. […] PCR reaction was run using standard conditions.

Row | Substance | effect on cell proliferation (BT474 cells) | effect on other cell lines or HMECs [1] | FADS2 transcript levels (FADS2 mRNA)
1 | NR1D1 shRNA: shRNA, mature sequence GGCATGGTGTTACTGTGTA (shRNA) | most dramatic effect on cell proliferation | without effect on other cell lines or HMECs | downregulated
2 | PBP shRNA: shRNA, mature sequence CCGAGTTCCTCTTATCCTA (shRNA) | most dramatic effect on cell proliferation | without effect on other cell lines or HMECs | downregulated
